Results as given in ChEMBL document CHEMBL2021887, “Olean-18-ene triterpenoids from Celastraceae species inhibit HIV replication targeting NF-kB and Sp1 dependent transcription” (Eur J Med Chem, 2012).
Active and inactive are the calls of the source. No cut-off for these calls is given here.

What was measured:
[1] = tested on: Human immunodeficiency virus 1; test: Antiviral activity against luciferase tagged VSV envelope pseudotyped HIV1 infected in human MT2 cells dosed simultaneously with virus infection measured 48 hrs post-infection by recombinant virus assay; assay type: functional, organism-based; conditions: Human immunodeficiency virus 1, MT2, 48 h
[2] = Cytotoxicity against non-infected human MT2 cells after 48 hrs by CellTiter Glo assay; assay type: cell-based
[3] = tested on: Human immunodeficiency virus 1; test: Antiviral activity against X4 tropic HIV1 pNL4.3-Ren infected in human MT2 cells at 10 uM dosed simultaneously with virus infection measured 48 hrs post-infection by recombinant virus assay; assay type: functional; conditions: Human immunodeficiency virus 1, pNL4.3-Ren, MT2, 48 h; values are per cent of control
[4] = tested on: Human immunodeficiency virus 1; test: Antiviral activity against X4 tropic HIV1 pNL4.3-Ren infected in human MT2 cells dosed simultaneously with virus infection measured 48 hrs post-infection by recombinant virus assay; assay type: functional, organism-based; conditions: Human immunodeficiency virus 1, pNL4.3-Ren, MT2, 48 h
[5] = tested on: Human immunodeficiency virus 1; test: Inhibition of viral transcription in X4 tropic HIV1 pNL4.3-Luc transfected human MT2 cells at 20 uM dosed post transfection and measured 24 hrs post compound dose by luciferase reporter gene assay; assay type: functional; conditions: Human immunodeficiency virus 1, pNL4.3-Luc, MT2, 24 h; read-out: INH
MT2 [6] = test: Inhibition of NFkappaB transcription in X4 tropic HIV1 pNL4.3-Luc transfected human MT2 cells at 20 uM dosed post transfection and measured 24 hrs post compound dose by luciferase reporter gene assay; assay type: functional
MT2 [7] = test: Cytotoxicity against non-infected human MT2 cells at 10 uM after 48 hrs by CellTiter Glo assay; assay type: cell-based; conditions: mt2, 48 h
MT2 [8] = test: Inhibition of Sp1 transcription in X4 tropic HIV1 pNL4.3-Luc transfected human MT2 cells at 20 uM dosed post transfection and measured 24 hrs post compound dose by luciferase reporter gene assay; assay type: functional

| SMILES | IC50 [1] | CC50 at 48 h [2] | residual activity at 10 µM [3] | IC50 [4] | percent inhibition at 20 µM [5] | inhibition (MT2 [6]) | Activity (MT2 [7]) | inhibition (MT2 [8]) |
| --- | --- | --- | --- | --- | --- | --- | --- | --- |
| CC1(C)[C@@H](O)CC[C@]2(C)[C@H]3CC[C@@H]4C5=C[C@](C)(CO)CC[C@]5(C)CC[C@@]4(C)[C@]3(C)CC[C@@H]12 | 6.56 µM | > 100 µM | 17% | 10.4 µM | < 50% | Active | 67% | Active |
| CC1(C)C(=O)CC[C@]2(C)[C@H]3CC[C@@H]4C5=C[C@](C)(CO)CC[C@]5(C)CC[C@@]4(C)[C@]3(C)CC[C@@H]12 | – | – | 50% | – | – | – | – | – |
| CC1(C)C=C2[C@H]3C[C@@H](O)[C@@H]4[C@@]5(C)CC[C@H](O)C(C)(C)[C@@H]5CC[C@@]4(C)[C@]3(C)CC[C@@]2(C)CC1 [NIVADIOL] | – | – | 121% | – | – | – | – | – |
| CC(=O)O[C@H]1CC[C@]2(C)[C@H]3CC[C@@H]4C5=CC(C)(C)CC[C@]5(C)CC[C@@]4(C)[C@]3(C)C[C@@H](O)[C@H]2C1(C)C | – | – | 102% | – | – | – | 124% | – |
| CC1(C)C=C2[C@H]3CC[C@@H]4[C@@]5(C)CCC(=O)C(C)(C)[C@@H]5[C@H](O)C[C@@]4(C)[C@]3(C)CC[C@@]2(C)CC1 | 5.14 µM | > 100 µM | 28% | 23.8 µM | < 50% | Active | 222% | Active |
| CC1(C)C=C2[C@H]3CC[C@@H]4[C@@]5(C)CC[C@H](O)C(C)(C)[C@@H]5CC[C@@]4(C)[C@]3(C)CC[C@@]2(C)C[C@H]1O | 54.3 µM | > 100 µM | 18% | 64.4 µM | < 50% | Active | 69% | Active |
| CC1(C)C(=O)CC[C@]2(C)[C@H]3CC[C@@H]4C5=C[C@](C)(CO)CC[C@]5(C)CC[C@@]4(C)[C@]3(C)C[C@@H](O)[C@@H]12 | 20 µM | > 100 µM | 16% | 65.6 µM | < 50% | Active | 62% | Active |
| CC1(C)C=C2[C@H]3CC[C@@H]4[C@@]5(C)CC[C@H](O)C(C)(C)[C@@H]5[C@H](O)C[C@@]4(C)[C@]3(C)CC[C@@]2(C)CC1 | 4.32 µM | 25.5 µM | 1% | 11.6 µM | – | – | 5% | – |
| CC(=O)O[C@H]1CC[C@]2(C)[C@H]3CC[C@@H]4C5=CC(C)(C)[C@H](OC(C)=O)C[C@]5(C)CC[C@@]4(C)[C@]3(C)CC[C@H]2C1(C)C | – | – | 107% | – | – | – | 93% | – |
| CC1(C)C=C2[C@H]3CC[C@@H]4[C@@]5(C)CCC(=O)C(C)(C)[C@@H]5CC[C@@]4(C)[C@]3(C)CC[C@@]2(C)CC1=O | 3.2 µM | > 100 µM | 14% | 4.04 µM | < 50% | Active | 222% | Active |
| CC(=O)OC[C@@]1(C)C=C2[C@H]3CC[C@@H]4[C@@]5(C)CCC(=O)C(C)(C)[C@@H]5CC[C@@]4(C)[C@]3(C)CC[C@@]2(C)CC1 | – | – | 116% | – | – | – | 116% | – |
| CC1(C)C=C2[C@H]3CC[C@@H]4[C@@]5(C)CC[C@H](O)C(C)(C)[C@@H]5CC[C@@]4(C)[C@]3(C)CC[C@@]2(C)CC1 [GERMANICOL] | – | – | 86% | – | – | – | – | – |
| CC1(C)C=C2[C@H]3CC[C@@H]4[C@@]5(C)CCC(=O)C(C)(C)[C@@H]5CC[C@@]4(C)[C@]3(C)CC[C@@]2(C)CC1 [GERMANICONE] | – | – | 84% | – | – | – | – | – |
| CC1(C)C=C2[C@H]3CC[C@@H]4[C@@]5(C)CCC(=O)C(C)(C)[C@@H]5CC[C@@]4(C)[C@]3(C)CC[C@@]2(C)C[C@H]1O | 20 µM | > 100 µM | 22% | 20 µM | < 50% | Active | 74% | Active |
| CC1(C)C=C2[C@H]3C[C@@H](O)[C@@H]4[C@@]5(C)CC[C@H](O)C(C)(C)[C@@H]5CC[C@@]4(C)[C@]3(C)CC[C@@]2(CO)CC1 | – | – | 78% | – | – | – | – | – |
